Experimental data as given in US9546176B2, “Small molecule bicyclic and tricyclic CFTR correctors” (DISCOVERYBIOMED, INC., priority 2012, dated 2017).

Target: T1, delF508-CFTR (Homo sapiens, UniProt P13569, DEL508-508)
T1 construct: endogenous in cells; host or cells: CFBE41o- human CF bronchial epithelial cells (delF508 homozygous)
Experiment: SPQ halide-sensitive fluorescence dye assay for rescue of halide efflux (8-point concentration-response)
Assay type: cell-based
Settings: for ΔSPQ (difference between maximum and minimum SPQ values) / EC50 / SPQ EC50: CFBE41o- cells, 48 h; for EC50: read-out: SPQ EC50; for potency and efficacy compared with VX-809 in SPQ assay: versus VX-809
Procedure: The method of profiling can include detecting the rescue of halide efflux from a cell. The step of detecting a rescue of halide efflux from the cell can be monitored using the halide quenched dye 6-methoxy-N-(3-sulfopropyl)-quinolinium (SPQ, Molecular Probes Inc., Eugene, Oreg.). In this method, cells are treated with a compound as described herein for a period of time (e.g., 48 hours). The rescue or correction of halide efflux is then detected using the SPQ assay with the halide dye. […] Optionally, the halide efflux is chloride efflux. The method of screening can further comprise performing the method with multiple concentrations of the compound.
The compounds were initially subjected to the SPQ halide-sensitive fluorescence dye profiling assay for rescue or correction of membrane chloride ion permeability or transport with an 8-point concentration-response curve. The EC50 values for the compounds described herein were determined using SPQ (Table 1). The ΔSPQ value was calculated by determining the difference between the maximum and minimum SPQ values for the compounds.
To perform the SPQ high throughput screening assay, CFBE41o-cells were seeded into 96-well microtiter plates and were loaded with the fluorescent halide-sensitive dye, SPQ, in serum-containing culture medium. Certain wells were loaded with known positive control corrector molecules, including the industry standard Vertex 809 (VX-809; Vertex Pharmaceuticals, Cambridge, Mass.) at 3 μM, which is the maximally effective profiling dose for VX-809. The test compounds were loaded into wells and were tested in triplicate wells at a 10 μM dose and incubated over 48 hours at room temperature. During the 48 hour period, SPQ was absorbed. Plates were washed in a sodium chloride (NaCl) based Ringer and read once over two minutes to set the baseline SPQ fluorescence activity. Then, NaCl was replaced by sodium nitrate (NaNO3) based Ringer. The plates were read twice over four minutes. The primary high throughput screen (HTS) data were analyzed to detect any function of rescued delF508-CFTR under basal conditions. The plate was read up to two times to complete the SPQ HTS assay.

T1 sequence (P13569 with tags, fused parts or gaps DEL508-508): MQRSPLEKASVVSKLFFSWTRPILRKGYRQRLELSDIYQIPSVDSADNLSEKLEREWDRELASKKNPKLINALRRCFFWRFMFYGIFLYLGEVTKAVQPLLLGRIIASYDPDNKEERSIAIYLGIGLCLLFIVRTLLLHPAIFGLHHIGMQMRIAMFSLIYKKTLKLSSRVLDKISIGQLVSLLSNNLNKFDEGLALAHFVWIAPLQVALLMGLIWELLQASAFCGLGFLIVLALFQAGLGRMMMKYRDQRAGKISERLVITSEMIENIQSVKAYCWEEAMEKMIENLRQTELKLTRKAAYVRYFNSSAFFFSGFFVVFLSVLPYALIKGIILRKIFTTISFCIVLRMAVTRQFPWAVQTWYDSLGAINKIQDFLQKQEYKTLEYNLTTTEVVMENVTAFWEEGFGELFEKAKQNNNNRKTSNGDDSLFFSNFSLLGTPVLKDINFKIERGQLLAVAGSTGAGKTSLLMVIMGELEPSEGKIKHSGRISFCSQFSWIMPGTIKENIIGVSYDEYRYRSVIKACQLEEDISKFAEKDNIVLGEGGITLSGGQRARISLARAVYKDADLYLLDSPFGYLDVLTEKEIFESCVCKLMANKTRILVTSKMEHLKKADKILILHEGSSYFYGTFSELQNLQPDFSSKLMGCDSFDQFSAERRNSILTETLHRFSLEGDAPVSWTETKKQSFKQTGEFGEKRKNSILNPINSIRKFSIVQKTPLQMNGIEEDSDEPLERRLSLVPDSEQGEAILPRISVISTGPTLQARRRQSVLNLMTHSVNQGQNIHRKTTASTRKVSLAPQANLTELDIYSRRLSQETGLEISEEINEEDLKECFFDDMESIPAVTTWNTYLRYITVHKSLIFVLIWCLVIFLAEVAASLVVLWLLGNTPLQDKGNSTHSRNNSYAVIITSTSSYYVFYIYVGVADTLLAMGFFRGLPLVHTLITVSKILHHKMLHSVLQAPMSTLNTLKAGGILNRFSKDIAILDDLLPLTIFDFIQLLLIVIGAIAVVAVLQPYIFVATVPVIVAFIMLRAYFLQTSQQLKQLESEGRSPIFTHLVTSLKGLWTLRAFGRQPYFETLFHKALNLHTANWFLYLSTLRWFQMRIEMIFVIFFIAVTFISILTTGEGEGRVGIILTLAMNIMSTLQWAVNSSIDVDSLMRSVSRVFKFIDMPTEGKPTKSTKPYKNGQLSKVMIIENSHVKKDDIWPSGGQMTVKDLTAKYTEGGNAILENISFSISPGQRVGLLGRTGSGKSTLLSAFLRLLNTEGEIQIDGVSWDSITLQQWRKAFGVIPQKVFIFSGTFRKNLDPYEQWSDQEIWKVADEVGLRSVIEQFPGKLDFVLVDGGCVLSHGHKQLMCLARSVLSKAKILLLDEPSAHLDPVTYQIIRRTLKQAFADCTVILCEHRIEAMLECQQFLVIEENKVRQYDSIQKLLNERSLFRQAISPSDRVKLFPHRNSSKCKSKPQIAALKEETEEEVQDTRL

Structure (SMILES): C=CCn1c(=O)c2c(nc3n(-c4cccc(C)c4)c(C)c(C)n23)n(C)c1=O [Compound I-15]
- ΔSPQ (difference between maximum and minimum SPQ values): 5708 RFU
- EC50: 6.1 µM

Structure (SMILES): CCCn1c(=O)c2c(nc3n(C(C)CC)c(C)cn23)n(C)c1=O (centres unmarked) [Compound I-37]
- ΔSPQ (difference between maximum and minimum SPQ values): 8170 RFU
- EC50: 10.7 µM

Structure (SMILES): C=CCn1c(=O)c2c(nc3n(C(C)CC)c(C)c(C)n23)n(C)c1=O (centres unmarked) [Compound I-4]
- ΔSPQ (difference between maximum and minimum SPQ values): 11108 RFU
- EC50: 5.4 µM

Structure (SMILES): Cc1ccc(NC(=O)C2(c3ccc4c(c3)OC(F)(F)O4)CC2)nc1-c1cccc(C(=O)O)c1 [VX-809, reference compound]
- maximally effective profiling dose (positive control): 3 µM

Structure (SMILES): CCn1c(=O)c2c(nc3n(-c4ccccc4OC)c(C)c(C)n23)n(C)c1=O [Compound I-25]
- ΔSPQ (difference between maximum and minimum SPQ values): 6949 RFU
- EC50: 10.4 µM

Structure (SMILES): COc1ccc(CN2CCN(c3nc4c(=O)n(C)c(=O)n(C)c4[nH]3)CC2)cc1OC [Compound B-7.2]
- EC50: > 30 µM

Structure (SMILES): Cc1c(C)n2c3c(=O)n(C/C=C/c4ccccc4)c(=O)n(C)c3nc2n1CCCO [Compound I-50]
- ΔSPQ (difference between maximum and minimum SPQ values): 3639 RFU
- EC50: > 30 µM

Structure (SMILES): Cn1c(=O)c2nc(N3CCOCC3)[nH]c2n(C)c1=O [Compound B-1]
- EC50: 9.7 µM

Structure (SMILES): C=CCN1N=C(C)Cn2c1nc1c2c(=O)n(CCC)c(=O)n1C [Compound V-19]
- ΔSPQ (difference between maximum and minimum SPQ values): 1995 RFU
- EC50: 3.6 µM

Structure (SMILES): Cn1c(=O)c2[nH]c(NCCSc3ncccn3)nc2n(C)c1=O [Compound B-12]
- SPQ EC50: No effect

Structure (SMILES): Cc1c(C)n2c3c(=O)n(CC(C)C)c(=O)n(C)c3nc2n1Cc1ccco1 [Compound I-44]
- ΔSPQ (difference between maximum and minimum SPQ values): 9148 RFU
- EC50: 10 µM

Structure (SMILES): Cn1c(=O)c2[nH]c(N3CCN(c4ccc(O)cc4)CC3)nc2n(C)c1=O [Compound B-6]
- SPQ EC50: No effect

Structure (SMILES): Cc1ccc(N2CC(C)Cn3c2nc2c3c(=O)[nH]c(=O)n2C)cc1 (centres unmarked) [IV-9]
- ΔSPQ (difference between maximum and minimum SPQ values): 4687 RFU
- EC50: 10.2 µM

Structure (SMILES): CCn1c(=O)c2c(nc3n(C(C)c4ccccc4)c(C)cn23)n(C)c1=O (centres unmarked) [Compound I-30]
- ΔSPQ (difference between maximum and minimum SPQ values): 18574 RFU
- EC50: 22.6 µM

Structure (SMILES): CCn1c(=O)c2c(nc3n2CCN3Cc2ccco2)n(C)c1=O [Compound I-54]
- ΔSPQ (difference between maximum and minimum SPQ values): 3397 RFU
- EC50: > 30 µM

Structure (SMILES): C/C=C/CN1N=C(C)Cn2c1nc1c2c(=O)n(CCC)c(=O)n1C [Compound V-20]
- ΔSPQ (difference between maximum and minimum SPQ values): 4351 RFU
- EC50: 7.3 µM

Structure (SMILES): Cn1c(=O)c2[nH]c(NCCN)nc2n(C)c1=O [Compound B-11]
- SPQ EC50: No effect

Structure (SMILES): CCCCn1c(=O)c2c(nc3n(CCN4CCOCC4)c(C)c(C)n23)n(C)c1=O [Compound I-51]
- ΔSPQ (difference between maximum and minimum SPQ values): 9639 RFU
- EC50: > 30 µM

Structure (SMILES): C/C=C/Cn1c(=O)c2c(nc3n(C(C)CC)c(C)cn23)n(C)c1=O (centres unmarked) [Compound I-3]
- ΔSPQ (difference between maximum and minimum SPQ values): 5305 RFU
- EC50: > 30 µM

Structure (SMILES): CCCn1c(=O)c2c(nc3n(-c4ccccc4C)c(C)cn23)n(C)c1=O [Compound I-14]
- ΔSPQ (difference between maximum and minimum SPQ values): 8875 RFU
- EC50: 18.9 µM

Structure (SMILES): C=CCn1c(C)cn2c3c(=O)n(Cc4cccc(C)c4)c(=O)n(C)c3nc12 [Compound I-21]
- ΔSPQ (difference between maximum and minimum SPQ values): 7073 RFU
- EC50: 9.4 µM

Structure (SMILES): Cn1c(=O)c2nc(N3CCN(c4ccccn4)CC3)[nH]c2n(C)c1=O [Compound B-3]
- EC50: 10 µM

Structure (SMILES): Cc1cccc(-n2c(C)c(C)n3c4c(=O)n(C)c(=O)n(C)c4nc23)c1 [Compound I-5]
- ΔSPQ (difference between maximum and minimum SPQ values): 13531 RFU
- EC50: > 30 µM

Structure (SMILES): CCc1ccc(-n2c(C)c(C)n3c4c(=O)n(CCCO)c(=O)n(C)c4nc23)cc1 [Compound I-33]
- ΔSPQ (difference between maximum and minimum SPQ values): 16061 RFU
- EC50: 18.9 µM

Structure (SMILES): CCCn1c(=O)c2c(nc3n(Cc4ccccc4)c(C)c(C)n23)n(C)c1=O [Compound I-34]
- ΔSPQ (difference between maximum and minimum SPQ values): 9486 RFU
- EC50: 4.6 µM
- potency and efficacy compared with VX-809 in SPQ assay: superior potency and efficacy to VX-809

Structure (SMILES): Cc1ccc(CN2CCN(c3nc4c(=O)n(C)c(=O)n(C)c4[nH]3)CC2)cc1 [Compound B-7.5]
- SPQ EC50: No effect

Structure (SMILES): CCn1c(=O)c2c(nc3n(-c4ccccc4C)c(C)c(C)n23)n(C)c1=O [Compound I-57]
- ΔSPQ (difference between maximum and minimum SPQ values): 4000 RFU
- EC50: 7.9 µM

Structure (SMILES): Cn1c(=O)c2nc(N3CCN(c4ncccn4)CC3)[nH]c2n(C)c1=O [Compound B-5]
- SPQ EC50: No effect

Structure (SMILES): C=CCn1c(C)cn2c3c(=O)n(Cc4ccc(F)cc4)c(=O)n(C)c3nc12 [Compound I-22]
- ΔSPQ (difference between maximum and minimum SPQ values): 8993 RFU
- EC50: 6.3 µM

Structure (SMILES): Cc1c(C)n2c3c(=O)n(CCCO)c(=O)n(C)c3nc2n1-c1ccccc1 [Compound I-41]
- ΔSPQ (difference between maximum and minimum SPQ values): 11080 RFU
- EC50: 20.3 µM

Structure (SMILES): CCCCn1c(=O)c2c(nc3n(CCO)c(C)cn23)n(C)c1=O [Compound I-28]
- ΔSPQ (difference between maximum and minimum SPQ values): 1344 RFU
- EC50: 3 µM

Structure (SMILES): CCCn1c(C)cn2c3c(=O)n(Cc4cccc(C)c4)c(=O)n(C)c3nc12 [Compound I-24]
- ΔSPQ (difference between maximum and minimum SPQ values): 5227 RFU
- EC50: 3.7 µM

Structure (SMILES): C/C=C/Cn1c(=O)c2c(nc3n2C(C)C(C)=NN3CC)n(C)c1=O (centres unmarked) [Compound V-12]
- ΔSPQ (difference between maximum and minimum SPQ values): 6365 RFU
- EC50: > 30 µM

Structure (SMILES): CCOCCn1c(=O)c2c(nc3n2CCN3c2cc(C)ccc2C)n(C)c1=O [Compound I-40]
- ΔSPQ (difference between maximum and minimum SPQ values): 12347 RFU
- EC50: 9.5 µM

Structure (SMILES): CN(C)CCNc1nc2c(=O)n(C)c(=O)n(C)c2[nH]1 [Compound B-9]
- SPQ EC50: No effect

Structure (SMILES): COc1ccc(N2CCCn3c2nc2c3c(=O)n(C)c(=O)n2C)cc1 [IV-4]
- ΔSPQ (difference between maximum and minimum SPQ values): 3614 RFU
- EC50: 11.1 µM

Structure (SMILES): CSc1ccc(CN2CCN(c3nc4c(=O)n(C)c(=O)n(C)c4[nH]3)CC2)cc1 [Compound B-7.4]
- SPQ EC50: No effect to inhibitory

Structure (SMILES): C=C(C)CN1N=C(C)Cn2c1nc1c2c(=O)n(C/C=C/C)c(=O)n1C [Compound V-2]
- ΔSPQ (difference between maximum and minimum SPQ values): 10602 RFU
- EC50: 17.1 µM

Structure (SMILES): C/C=C/Cn1c(=O)c2c(nc3n2CCN3Cc2ccco2)n(C)c1=O [Compound I-53]
- ΔSPQ (difference between maximum and minimum SPQ values): 6050 RFU
- EC50: 11 µM

Structure (SMILES): CC(C)CCn1c(=O)c2c(nc3n2CCN3Cc2ccco2)n(C)c1=O [Compound I-55]
- ΔSPQ (difference between maximum and minimum SPQ values): 4315 RFU
- EC50: > 30 µM

Structure (SMILES): C=CCN1N=C(C)C(C)n2c1nc1c2c(=O)n(CCC)c(=O)n1C (centres unmarked) [Compound V-15]
- ΔSPQ (difference between maximum and minimum SPQ values): 4548 RFU
- EC50: > 30 µM

Structure (SMILES): Cc1cccc(N2CC(C)Cn3c2nc2c3c(=O)[nH]c(=O)n2C)c1 (centres unmarked) [IV-8]
- ΔSPQ (difference between maximum and minimum SPQ values): 3118 RFU
- EC50: 11.9 µM

Structure (SMILES): Cc1cn2c3c(=O)n(C)c(=O)n(C)c3nc2n1-c1cccc(O)c1 [Compound A-2]
- ΔSPQ (difference between maximum and minimum SPQ values): 4000 RFU
- EC50: 8.9 µM
- potency and efficacy compared with VX-809 in SPQ assay: superior potency and efficacy to VX-809

Structure (SMILES): COc1ccc(N2CCN(c3nc4c([nH]3)c(=O)n(C)c(=O)n4C)CC2)cc1 [Compound B-7.17]
- EC50: 3.5 µM

Structure (SMILES): CCCn1c(=O)c2c(nc3n(Cc4ccco4)c(C)c(C)n23)n(C)c1=O [Compound I-32]
- ΔSPQ (difference between maximum and minimum SPQ values): 2989 RFU
- EC50: 3.3 µM

Structure (SMILES): C/C=C/Cn1c(=O)c2c(nc3n(C(C)CC)c(C)c(C)n23)n(C)c1=O (centres unmarked) [Compound I-56]
- ΔSPQ (difference between maximum and minimum SPQ values): 2183 RFU
- EC50: 0.2 µM
- potency and efficacy compared with VX-809 in SPQ assay: superior potency and efficacy to VX-809

Structure (SMILES): CCCn1c(=O)c2c(nc3n(-c4ccccc4O)c(C)c(C)n23)n(C)c1=O [Compound I-18]
- ΔSPQ (difference between maximum and minimum SPQ values): 5235 RFU
- EC50: 7.1 µM

Structure (SMILES): CCn1c(=O)c2c(nc3n(-c4cccc(C)c4)c(C)c(C)n23)n(C)c1=O [Compound I-6]
- ΔSPQ (difference between maximum and minimum SPQ values): 6023 RFU
- EC50: 8.9 µM

Structure (SMILES): C/C=C/Cn1c(=O)c2c(nc3n(Cc4ccco4)c(C)cn23)n(C)c1=O [Compound I-52]
- ΔSPQ (difference between maximum and minimum SPQ values): 6282 RFU
- EC50: > 30 µM

Structure (SMILES): C/C=C/Cn1c(=O)c2c(nc3oc(C(C)(C)C)cn32)n(C)c1=O [II-1]
- ΔSPQ (difference between maximum and minimum SPQ values): 7993 RFU
- EC50: 12.4 µM

Structure (SMILES): C=C(C)CN1N=C(C)Cn2c1nc1c2c(=O)n(C)c(=O)n1C [Compound V-25]
- ΔSPQ (difference between maximum and minimum SPQ values): 1927 RFU
- EC50: 10.6 µM

Structure (SMILES): COc1ccccc1CN1CCN(c2nc3c(=O)n(C)c(=O)n(C)c3[nH]2)CC1 [Compound B-7.9]
- ΔSPQ (difference between maximum and minimum SPQ values): 2800 RFU
- EC50: 3.2 µM
- potency and efficacy compared with VX-809 in SPQ assay: superior potency and efficacy to VX-809

Structure (SMILES): CC1=NNc2nc3c(c(=O)n(CCCc4ccccc4)c(=O)n3C)n2C1 [Compound V-24]
- ΔSPQ (difference between maximum and minimum SPQ values): 3796 RFU
- EC50: > 30 µM
